According to patent US20230234941A1, “Salts of Compound and Pharmaceutical Compositions Containing the Same” (Shenzhen Forward Pharmaceuticals Co., Limited., priority 2020, published 2023):
Converted amounts (≈) assume the structure as drawn. Where two headings read alike, the source gives them in different places.

Assays:
Format in all cases: physicochemical
[1] = Solid solubility test (2 h and 24 h); settings: for XRPD measured at 2 h: state of sample / solid fraction; for solubility at 2 h / solubility at 24 h: thermodynamic from solid; for solubility at 24 h: read-out: Solubility measured at 24 h; for XRPD measured at 24 h: 24 h test, state of sample
Procedure: samples were weighed for each amorphous salt solid (equivalent to 20 mg of free base), and 10 mL of the following solvents were respectively added: 0.1N HCl solution (pH 1.0), 50 mM phosphate buffer (pH 4.5), FeSSIF-V1 (pH 5.0), FaSSIF-V1 (pH 6.5) and SGF (pH 2.0), […] The suspension was then centrifuged at 37° C., the supernatant was measured for solubility by HPLC, and the solid fraction was measured for XRPD. The target solubility was at least 2 mg (based on free base)/mL.

[2] = Solid storage stability test; settings: for Original morphology / Original purity: original solid before storage; for chemical and physical stability after storage (summary): solid/25° C./60% RH/open/1 week and/or solid/60° C./closed container/1 week
Procedure: Each amorphous salt solid was weighed (two 2 mg samples were weighed for purity testing after solid storage stability study, and one 10 mg sample was weighed for XRPD testing after solid storage stability study) and placed in a glass vial. In a 25° C./60% RH solid storage stability test, the amorphous salt solid was placed in a 25° C./60% RH constant temperature and humidity chamber, and placed in the dark for 1 week (i.e. “solid/25° C./60% RH/open/1 week”), and in a 60° C. solid storage stability test, the amorphous salt solid was sealed in an oven at 60° C. and heated for 1 week in the dark (i.e. “solid/60° C./closed container/l week”). Then the sample was taken out for purity testing, crystal form detection and appearance observation, respectively.

[3] = Chemical and physical stability of the salts at the end of the preparation
Description: It is crucial for drug development whether the salts obtained as above have chemical and physical stability at the end of the preparation. The chemical and physical stability of the salts at the end of the preparation includes: […]

[4] = FaSSIF-V1 (pH 6.5) (Test ES4, partly printed ES1)
[5] = FaSSIF-V1 (pH 6.5) (Test ES4, partly printed ES1), 37° C., based on free base
[6] = Test ES1: 0.1N HCl solution (pH 1.0)
[7] = Test ES1: 0.1N HCl solution (pH 1.0), 37° C., based on free base
[8] = Test ES2: 50 mM phosphate buffer (pH 4.5)
[9] = Test ES2: 50 mM phosphate buffer (pH 4.5), 37° C., based on free base
[10] = Test ES3: FeSSIF-V1 (pH 5.0), 37° C., based on free base
[11] = Test ES5: SGF (pH 2.0), 37° C., based on free base
[12] = Test BS1: solid/25° C./60% RH/open/1 week
[13] = listed as amorphous 2 eq. mesylate salt
[14] = solid/60° C./closed container/1 week (Test BS1)
[15] = listed as 1 eq. hydrochloride salt
[16] = listed as amorphous 1 eq. hydrochloride salt
[17] = listed as amorphous 2 eq. besylate salt

For `C=CC(=O)Nc1cc(Nc2ncnc(-c3cn(C)c4ccccc34)n2)c(OC)cc1N(C)CCN(C)C` [Example 5], the “pH measured at 2 h” value [1, 4] was “(6.2)”, the “Solubility measured at 2 h” value [1, 5] was >2000 µg/mL and the “XRPD measured at 2 h” value [1, 4] was “clear solution”. The “pH measured at 2 h” value [1, 6] was “(0.7)”, the “Solubility measured at 2 h” value [1, 7] was >2000 µg/mL and the “XRPD measured at 2 h” value [1, 6] was “clear solution”. The “pH measured at 2 h” value [1, 8] was “(4.2)”, the “Solubility measured at 2 h” value [1, 9] was >2000 µg/mL and the “XRPD measured at 2 h” value [1, 8] was “clear solution”. For the same molecule, the “pH measured at 2 h” value ([1]; Test ES3: FeSSIF-V1 (pH 5.0)) was “(4.8)”, the “Solubility measured at 2 h” value [1, 10] was >2000 µg/mL and the “XRPD measured at 2 h” value ([1]; Test ES3: FeSSIF-V1 (pH 5.0)) was “clear solution”. The “pH measured at 2 h” value ([1]; Test ES5: SGF (pH 2.0)) was “(1.8)”, the “Solubility measured at 2 h” value [1, 11] was >2000 µg/mL and the “XRPD measured at 2 h” value ([1]; Test ES5: SGF (pH 2.0)) was “clear solution”. For the same molecule, the Purity [2, 12] was 99.9%, the Original morphology [2] was “amorphous” and the Original purity [2] was 99.9%. For the same molecule, the “chemical and physical stability after storage (summary)” value ([2]; listed as 2 eq. mesylate salt) was “physically unstable”, the “chemical and physical stability after storage (summary)” value [2, 13] was “physically unstable” and the “physical and chemical stability under storage (in words)” value (“physical and chemical stability” below) ([2]; solid/25° C./60% RH/open/1 week, listed as amorphous 2 eq. mesylate salt) was “transformed from amorphous to a low crystallinity and showed a certain hygroscopicity (agglomeration)”. The Purity [2, 14] was 99.8%, the “physical and chemical stability” value ([2]; solid/60° C./closed container/1 week, listed as amorphous 2 eq. mesylate salt) was “a certain hygroscopicity (partial agglomeration)” and the “chemical and physical stability at the end of the preparation” value ([3]; listed as 2 eq. mesylate salt) was “chemically and physically stable”. The “chemical and physical stability at the end of the preparation” value [3, 13] was “chemically and physically stable”.
With `C=CC(=O)Nc1cc(Nc2ncnc(-c3cn(C)c4ccccc34)n2)c(OC)cc1N(C)CCN(C)C` [Example 2] the solubility at 2 h ([1]; 37 °C, 2 h solid solubility test, all five solvents, read-out: solubility in all solvents tested) was > 2000 µg/mL, the “pH measured at 2 h” value [1, 4] was “(6.5)” and the “Solubility measured at 2 h” value [1, 5] was >2000 µg/mL. For the same molecule, the “XRPD measured at 2 h” value [1, 4] was “clear solution”, the “pH measured at 2 h” value [1, 6] was “(0.7)” and the “Solubility measured at 2 h” value [1, 7] was >2000 µg/mL. For the same molecule, the “XRPD measured at 2 h” value [1, 6] was “clear solution”, the “pH measured at 2 h” value [1, 8] was “(4.5)” and the “Solubility measured at 2 h” value [1, 9] was >2000 µg/mL. The “XRPD measured at 2 h” value [1, 8] was “clear solution”, the “pH measured at 2 h” value ([1]; Test ES3: FeSSIF-V1 (pH 5.0)) was “(4.8)” and the “Solubility measured at 2 h” value [1, 10] was >2000 µg/mL. The “XRPD measured at 2 h” value ([1]; Test ES3: FeSSIF-V1 (pH 5.0)) was “clear solution”, the “pH measured at 2 h” value ([1]; Test ES5: SGF (pH 2.0)) was “(2.0)” and the “Solubility measured at 2 h” value [1, 11] was >2000 µg/mL. For the same molecule, the “XRPD measured at 2 h” value ([1]; Test ES5: SGF (pH 2.0)) was “clear solution”, the Purity [2, 12] was 99.9% and the Original morphology [2] was “amorphous”. The Original purity [2] was 99.9%, the “chemical and physical stability after storage (summary)” value [2, 15] was “chemically unstable” and the “chemical and physical stability after storage (summary)” value [2, 16] was “chemically unstable”. For the same molecule, the “physical and chemical stability” value ([2]; solid/25° C./60% RH/open/1 week, listed as amorphous 1 eq. hydrochloride salt) was “good physical and chemical stability”, the decrease in purity ([2]; solid/60° C./closed container/1 week) was “about 2%” and the Purity [2, 14] was 98.2%. The “chemical and physical stability at the end of the preparation” value [3, 15] was “chemically and physically stable” and the “chemical and physical stability at the end of the preparation” value [3, 16] was “chemically and physically stable”.
In the case of `C=CC(=O)Nc1cc(Nc2ncnc(-c3cn(C)c4ccccc34)n2)c(OC)cc1N(C)CCN(C)C` [Example 7], the solubility at 2 h ([1]; 0.1N HCl solution, 37 °C, pH 1, simulated gastric fluid, Test ES1: 0.1N HCl solution (pH 1.0), 37° C., based on free base, read-out: Solubility measured at 2 h) is reported as < 2000 µg/mL, the solubility at 2 h ([1]; 37 °C, not achieved in some solvents / greater in various solvents, read-out: solubility in solvents that mimic physiological conditions) is reported as < 2000 µg/mL and the “pH measured at 2 h” value [1, 4] is reported as “(6.1)”. For the same molecule, the “Solubility measured at 2 h” value [1, 5] was >2000 µg/mL, the “XRPD measured at 2 h” value [1, 4] was “clear solution” and the “pH measured at 2 h” value [1, 6] was “(0.8)”. For the same molecule, the “Solubility measured at 2 h” value [1, 7] was 1800 µg/mL (≈ 3.6 mM), the “pH measured at 2 h” value [1, 8] was “(4.2)” and the “Solubility measured at 2 h” value [1, 9] was >2000 µg/mL. For the same molecule, the “XRPD measured at 2 h” value [1, 8] was “clear solution”, the “pH measured at 2 h” value ([1]; Test ES3: FeSSIF-V1 (pH 5.0)) was “L(4.8)” and the “Solubility measured at 2 h” value [1, 10] was >2000 µg/mL. For the same molecule, the “XRPD measured at 2 h” value ([1]; Test ES3: FeSSIF-V1 (pH 5.0)) was “clear solution”, the “pH measured at 2 h” value ([1]; Test ES5: SGF (pH 2.0)) was “(1.7)” and the “Solubility measured at 2 h” value [1, 11] was >2000 µg/mL. For the same molecule, the “XRPD measured at 2 h” value ([1]; Test ES5: SGF (pH 2.0)) was “clear solution”, the Purity [2, 12] was 99.6% and the Original morphology [2] was “amorphous”. For the same molecule, the Original purity [2] was 99.6%, the “chemical and physical stability after storage (summary)” value ([2]; listed as 2 eq. besylate salt) was “physically unstable” and the “chemical and physical stability after storage (summary)” value [2, 17] was “physically unstable”. For the same molecule, the “physical and chemical stability” value ([2]; solid/25° C./60% RH/open/1 week, listed as amorphous 2 eq. besylate salt) was “slight color change and showed significant hygroscopicity (caking and fusion to a glassy state)”, the Purity [2, 14] was 99.4% and the “physical and chemical stability” value ([2]; solid/60° C./closed container/1 week, listed as amorphous 2 eq. besylate salt) was “good physical and chemical stability”. For the same molecule, the “chemical and physical stability at the end of the preparation” value ([3]; listed as 2 eq. besylate salt) was “chemically and physically stable” and the “chemical and physical stability at the end of the preparation” value [3, 17] was “chemically and physically stable”.
In the case of `C=CC(=O)Nc1cc(Nc2ncnc(-c3cn(C)c4ccccc34)n2)c(OC)cc1N(C)CCN(C)C` [Example 1], the solubility at 2 h ([1]; 50 mM phosphate buffer, 37 °C, pH 4.5, aqueous buffer, Test ES2: 50 mM phosphate buffer (pH 4.5), 37° C., based on free base, read-out: Solubility measured at 2 h) is reported as > 2000 µg/mL, the “pH measured at 2 h” value [1, 4] is reported as “(6.8)” and the “Solubility measured at 2 h” value [1, 5] is reported as >2000 µg/mL. For the same molecule, the “XRPD measured at 2 h” value [1, 4] was “clear solution”, the solubility at 24 h ([1]; FaSSIF-V1, 37 °C, pH 6.5, fassif, Test ES4: FaSSIF-V1 (pH 6.5)) was > 2000 µg/mL and the solubility at 2 h ([1]; FeSSIF-V1, 37 °C, pH 5, fessif, Test ES3: FeSSIF-V1 (pH 5.0), 37° C., based on free base, read-out: Solubility measured at 2 h) was > 2000 µg/mL. The solubility at 24 h ([1]; FeSSIF-V1, 37 °C, pH 5, fessif, Test ES3: FeSSIF-V1 (pH 5.0)) was > 2000 µg/mL, the “pH measured at 2 h” value [1, 6] was “(0.8)” and the “Solubility measured at 2 h” value [1, 7] was >2000 µg/mL. The “XRPD measured at 2 h” value [1, 6] was “clear solution”, the “pH measured at 2 h” value [1, 8] was “(4.6)” and the “XRPD measured at 2 h” value [1, 8] was “clear solution”. For the same molecule, the “pH measured at 2 h” value ([1]; Test ES3: FeSSIF-V1 (pH 5.0)) was “(4.9)”, the “Solubility measured at 24 h” value ([1]; Test ES3: FeSSIF-V1 (pH 5.0)) was >2000 µg/mL and the “pH measured at 24 h” value ([1]; Test ES3: FeSSIF-V1 (pH 5.0)) was “(5.0)”. The “XRPD measured at 24 h” value ([1]; Test ES3: FeSSIF-V1 (pH 5.0)) was “clear solution”, the “XRPD measured at 2 h” value ([1]; Test ES3: FeSSIF-V1 (pH 5.0)) was “clear solution” and the “Solubility measured at 24 h” value ([1]; Test ES4: FaSSIF-V1 (pH 6.5)) was >2000 µg/mL. The “pH measured at 24 h” value ([1]; Test ES4: FaSSIF-V1 (pH 6.5)) was “(6.8)”, the “XRPD measured at 24 h” value ([1]; Test ES4: FaSSIF-V1 (pH 6.5)) was “clear solution” and the “pH measured at 2 h” value ([1]; Test ES5: SGF (pH 2.0)) was “(2.4)”. For the same molecule, the “Solubility measured at 2 h” value [1, 11] was >2000 µg/mL, the “XRPD measured at 2 h” value ([1]; Test ES5: SGF (pH 2.0)) was “clear solution” and the Purity [2, 12] was 99.6%. The Original morphology [2] was “amorphous”, the Original purity [2] was 99.9% and the “physical and chemical stability” value ([2]; solid/25° C./60% RH/open/1 week, listed as amorphous free base) was “good physical and chemical stability”. For the same molecule, the Purity [2, 14] was 99.9%, the “physical and chemical stability” value ([2]; solid/60° C./closed container/1 week, listed as amorphous free base) was “transformed from amorphous to a moderate crystallinity” and the “chemical and physical stability at the end of the preparation” value ([3]; listed as amorphous free base) was “chemically and physically stable”.
